The numbers were not newly measured in patent publication US8580317B2, “Compositions and methods for treating acne” (Revance Therapeutics, Inc., priority 2005, dated 2013), which cites them from elsewhere.

In series [1] the test system is propionibacterium acnes (P. Acnes). The conditions noted are these: background statement.
The conditions of series [2]: benzoyl peroxide topically applied.

`O=C(OOC(=O)c1ccccc1)c1ccccc1` [benzoyl peroxide]: in series [1], the “kills P. acnes compared with other medications” value is “better than any other medication on the market”. In addition, the “share of the population that experiences skin allergies” value in series [2] is on record as “about 10%”.
